Test results from ChEMBL document CHEMBL1201862, “PubChem BioAssay data set” (2004).
Activity calls are given as the source filed them.

How the values were obtained:
[1] = target: T1, Calpain-2 catalytic subunit (Sus scrofa, UniProt P43367); assay: pig calpain II inhibitor potency, dose response, biochemical, fluorogenic peptide substrate (AID 1420); type: functional
T1 sequence (P43367 whole entry): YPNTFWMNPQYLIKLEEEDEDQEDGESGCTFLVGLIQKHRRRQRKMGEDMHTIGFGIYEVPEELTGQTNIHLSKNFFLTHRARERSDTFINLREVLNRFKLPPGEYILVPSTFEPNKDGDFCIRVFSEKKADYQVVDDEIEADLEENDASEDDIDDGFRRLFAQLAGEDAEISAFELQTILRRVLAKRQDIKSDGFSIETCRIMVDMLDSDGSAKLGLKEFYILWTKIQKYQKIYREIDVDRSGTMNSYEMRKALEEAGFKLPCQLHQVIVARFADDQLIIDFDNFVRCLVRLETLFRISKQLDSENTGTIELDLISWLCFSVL

Nonstructural protein 1 = Nonstructural protein 1 (Influenza A virus, UniProt Q194T2); type: functional, Influenza A virus (A/California/07/2009(H1N1))
[2] = target: T2, Short transient receptor potential channel 4 (Mus musculus, UniProt Q9QUQ5); assay: mouse TRPC4 channel inhibitors, dose response, cell-based, HEK293 TRPC4/mu-opioid, Fluo-4 calcium (AID 434942); type: functional;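 further: potency of inhibitors blocking the TRPC4 calcium response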
T2 sequence (Q9QUQ5 whole entry): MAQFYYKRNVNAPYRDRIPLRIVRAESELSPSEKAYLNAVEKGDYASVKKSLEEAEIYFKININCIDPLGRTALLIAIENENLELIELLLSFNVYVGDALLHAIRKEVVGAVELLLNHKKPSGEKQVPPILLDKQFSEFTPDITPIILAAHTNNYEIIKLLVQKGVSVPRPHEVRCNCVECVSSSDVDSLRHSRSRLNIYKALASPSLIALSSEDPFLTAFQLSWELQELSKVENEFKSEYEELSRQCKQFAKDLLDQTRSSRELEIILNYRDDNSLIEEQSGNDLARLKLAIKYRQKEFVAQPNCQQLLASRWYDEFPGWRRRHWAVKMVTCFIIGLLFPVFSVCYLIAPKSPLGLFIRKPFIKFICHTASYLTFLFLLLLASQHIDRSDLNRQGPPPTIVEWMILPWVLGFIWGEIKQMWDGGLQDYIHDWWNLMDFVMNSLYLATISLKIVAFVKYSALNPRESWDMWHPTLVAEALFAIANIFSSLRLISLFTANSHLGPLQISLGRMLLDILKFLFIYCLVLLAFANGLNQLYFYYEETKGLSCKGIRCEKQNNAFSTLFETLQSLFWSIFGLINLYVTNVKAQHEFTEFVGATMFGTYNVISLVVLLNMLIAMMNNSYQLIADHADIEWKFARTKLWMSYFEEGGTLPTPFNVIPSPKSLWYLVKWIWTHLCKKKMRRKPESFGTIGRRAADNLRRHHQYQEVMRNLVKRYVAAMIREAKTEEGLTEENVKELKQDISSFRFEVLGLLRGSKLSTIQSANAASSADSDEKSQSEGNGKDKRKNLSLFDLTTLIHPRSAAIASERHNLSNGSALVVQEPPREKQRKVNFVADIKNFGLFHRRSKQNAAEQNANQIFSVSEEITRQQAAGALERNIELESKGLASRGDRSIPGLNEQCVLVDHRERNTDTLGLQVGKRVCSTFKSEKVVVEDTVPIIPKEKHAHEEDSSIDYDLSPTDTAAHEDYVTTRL

[3] = target: Eukaryotic translation initiation factor 4E (Mus musculus, UniProt P63073); assay: eIF4E–eIF4G protein interaction inhibitors, dose response, biochemical, TR-FRET (AID 855); type: functional;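 further: potency for disrupting eIF4E binding to eIF4GI seen as loss of FRET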
[4] = target: T3, Corticotropin-releasing factor receptor 2/Corticotropin-releasing factor-binding protein (Homo sapiens, UniProt P24387+Q13324); assay: Dose Response confirmation of uHTS hits for small molecule antagonists of the CRF-binding protein and CRF-R2 receptor complex.; type: functional; details: read-out: IC50_Mean
T3 sequence (Q13324 whole entry): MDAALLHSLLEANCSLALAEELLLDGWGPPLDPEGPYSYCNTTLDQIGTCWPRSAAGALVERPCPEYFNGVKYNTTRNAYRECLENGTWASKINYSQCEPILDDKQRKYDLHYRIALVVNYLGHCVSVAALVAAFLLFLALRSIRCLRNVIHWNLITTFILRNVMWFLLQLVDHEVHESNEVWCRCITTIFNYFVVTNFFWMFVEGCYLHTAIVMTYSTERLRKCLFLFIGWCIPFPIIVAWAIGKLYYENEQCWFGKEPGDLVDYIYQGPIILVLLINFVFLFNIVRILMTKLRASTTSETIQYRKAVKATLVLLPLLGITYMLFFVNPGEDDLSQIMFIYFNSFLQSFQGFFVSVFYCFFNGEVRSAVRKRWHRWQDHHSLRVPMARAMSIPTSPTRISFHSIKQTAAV
T3 sequence (P24387 whole entry): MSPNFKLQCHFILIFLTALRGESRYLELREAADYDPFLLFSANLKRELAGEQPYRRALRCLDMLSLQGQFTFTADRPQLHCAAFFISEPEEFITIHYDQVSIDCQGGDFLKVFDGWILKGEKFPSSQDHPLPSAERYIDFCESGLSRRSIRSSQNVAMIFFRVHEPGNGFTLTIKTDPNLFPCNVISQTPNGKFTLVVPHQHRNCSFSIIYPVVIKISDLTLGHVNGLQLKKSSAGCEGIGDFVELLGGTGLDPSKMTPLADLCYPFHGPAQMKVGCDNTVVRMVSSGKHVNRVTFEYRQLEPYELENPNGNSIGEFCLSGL

[5] = target: T3, Corticotropin-releasing factor receptor 2/Corticotropin-releasing factor-binding protein; assay: activators of CRF receptor 2 with binding protein – uHTS hits, confirmation (AID 602473); type: functional; details: read-out: EC50_Mean
[6] = CRF-BP/CRF-R2 complex antagonists, dose response, cell-based, uHTS hits, 384-well (AID 651639); type: functional, Homo sapiens; details: read-out: IC50_Mean
[7] = A Cell Based Secondary Assay To Explore Cytotoxicity of Compounds that Sensitize Mycobacterium Tuberculosis to Beta-Lactam Antibiotics.; type: functional
[8] = Luminescence Cell-Based Dose Retest to Confirm Inhibitors of Cancer Stem Cells. [Related pubchem assays (depositor defined):AID2717, AID2721]; type: functional; details: Homo sapiens
[9] = system: Streptococcus sp. 'group A'; assay: growth inhibition of control SK(-) GAS strain, dose response, counter-screen for streptokinase expression inhibitor project, luminescence, kanamycin, BacTiterGlo, confirmation (AID 1900); type: functional, organism-based
Streptokinase A = target: T4, Streptokinase A (Streptococcus pyogenes serotype M1, UniProt P10520); assay: S. pyogenes streptokinase expression inhibitors, potency, dose response, plasminogen activation absorbance, OD405 (AID 1914); type: functional, Streptococcus pyogenes M1 GAS;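 further: secreted streptokinase activity via plasminogen activation per viability signal from cell pellet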
T4 sequence (P10520 whole entry): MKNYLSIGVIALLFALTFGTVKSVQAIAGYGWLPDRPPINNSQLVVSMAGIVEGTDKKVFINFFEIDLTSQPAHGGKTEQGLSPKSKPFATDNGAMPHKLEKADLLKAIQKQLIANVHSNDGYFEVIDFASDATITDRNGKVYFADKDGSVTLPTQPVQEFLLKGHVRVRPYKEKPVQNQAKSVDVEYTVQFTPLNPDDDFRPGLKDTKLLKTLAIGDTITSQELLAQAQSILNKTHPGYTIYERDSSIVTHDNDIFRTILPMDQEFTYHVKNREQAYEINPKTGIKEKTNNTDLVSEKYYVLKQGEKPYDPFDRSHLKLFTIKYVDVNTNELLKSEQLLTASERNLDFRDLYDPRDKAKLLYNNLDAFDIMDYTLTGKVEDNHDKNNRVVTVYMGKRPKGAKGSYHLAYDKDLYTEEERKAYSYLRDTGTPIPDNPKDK

[10] = inhibitors of intracellular T. cruzi replication, confirmation, NIH3T3 host cells, beta-gal luminescence (AID 2044); type: functional, cell-based;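 further: intracellular parasites grown in NIH/3T3 mouse fibroblasts as host cells; luminescent beta-galactosidase reporter signal from transgenic T. cruzi replicating inside host cells; inhibitors lower the luminescence signal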
[11] = cytotoxicity toward NIH3T3 fibroblasts, dose response, counter-screen, cell-based, ATP luminescence, mouse fibroblasts (AID 2010); type: functional;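 further: cells exposed to compound for about 90 hours before reading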
Streptococcus = assay: Group A Streptococcus viability loss, dose response, counter-screen for streptokinase expression inhibitor project, luminescence, BacTiterGlo (AID 1915); type: functional, organism-based;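 further: potency for reduction of bacterial viability or growth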
[12] = Shn3 3'UTR reporter inhibitors, dose response, cell-based, Clone20 osteoblasts, firefly luciferase, cherry-picked (AID 624132); type: functional;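 further: firefly luciferase luminescence from reporter carrying the Shn3 3'UTR in osteoblasts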
[13] = HepG2 cell cytotoxicity, dose response, cytotoxicity control for Shn3 inhibitor project, CellTiter-Glo, cherry-picked (AID 624134); type: functional, cell-based
[14] = control 3'UTR Renilla luciferase suppression, dose response, counter-screen for Shn3 inhibitor project, cell-based, Clone20-Shn3RL, cherry-picked (AID 624133); type: functional
Protein skinhead-1 = target: T5, Protein skinhead-1 (Caenorhabditis elegans, UniProt P34707); type: functional
T5 sequence (P34707 whole entry): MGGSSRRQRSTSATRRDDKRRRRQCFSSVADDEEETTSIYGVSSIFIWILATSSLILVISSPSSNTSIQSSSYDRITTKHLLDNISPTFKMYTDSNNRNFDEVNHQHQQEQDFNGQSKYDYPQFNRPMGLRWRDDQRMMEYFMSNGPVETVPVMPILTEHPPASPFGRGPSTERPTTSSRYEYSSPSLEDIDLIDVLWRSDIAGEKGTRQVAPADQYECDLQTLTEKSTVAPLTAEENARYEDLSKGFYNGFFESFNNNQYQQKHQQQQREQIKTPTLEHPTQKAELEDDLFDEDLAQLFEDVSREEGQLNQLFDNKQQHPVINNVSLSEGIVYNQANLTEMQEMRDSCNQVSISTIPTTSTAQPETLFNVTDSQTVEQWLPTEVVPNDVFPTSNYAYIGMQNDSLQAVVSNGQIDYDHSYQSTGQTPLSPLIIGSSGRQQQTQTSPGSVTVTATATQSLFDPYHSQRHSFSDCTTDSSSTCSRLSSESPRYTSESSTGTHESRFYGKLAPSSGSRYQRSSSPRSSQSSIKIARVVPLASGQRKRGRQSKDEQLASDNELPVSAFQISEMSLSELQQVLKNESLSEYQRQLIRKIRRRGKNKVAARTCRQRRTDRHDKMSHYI

Cytochrome P450 3A4 = Cytochrome P450 3A4 (Homo sapiens, UniProt P08684);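 further: CYP3A4 tested as one member of a cytochrome P450 panel screen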

SMILES: Cc1nn(-c2ccccc2)c2c1C(c1ccc(Br)s1)C(C#N)=C(N)O2 (configuration not stated)
- IC50 [1]: > 50 µM (not active)
- IC50 (Nonstructural protein 1): 76.2 µM (active)

SMILES: COc1ccc(C2=NN(C(=O)c3ccccc3)C(c3ccc(OC)c(OC)c3)C2)c(O)c1 (configuration not stated)
- EC50 [2]: 9.44 µM (active)

SMILES: CCCN1CCN(C(=O)CCCNC(=O)Cn2cnc3sc(C)c(C)c3c2=O)CC1
- IC50 [3]: > 64 µM (inactive)

SMILES: Cc1ccc(C)c(N2CCN(S(=O)(=O)c3ccc4c(c3)C(C)(C)C(=O)N4C)CC2)c1
- IC50 [4]: 38.6 µM (active)
- EC50 [5]: > 53 µM (inactive)
- IC50 [6]: 9.45 µM (active)

SMILES: COc1cc(C2C(C(=O)c3ccccc3)=C(O)C(=O)N2c2ccccn2)ccc1O (configuration not stated)
- IC50 [3]: 50 µM (inactive)

SMILES: O=C1NC(=S)N(C2CC2)C(=O)/C1=C/NNC(=O)c1ccccc1O
- IC50 (Nonstructural protein 1): 16.2 µM (active)

SMILES: CN1CCN(c2ccccc2NC(=O)c2ccc(-c3ccc(Cl)c(Cl)c3)o2)CC1
- CC50 [7]: 25.2 µM (active)
- AC50 [8]: 4.06 µM (active)

SMILES: Cc1ccc(/C=N/n2c(S)nnc2-c2cccc(Cl)c2)o1
- IC50 [4]: < 0.368 µM (active)
- EC50 [5]: > 53 µM (inactive)
- IC50 [6]: > 20 µM (inactive)

SMILES: CCCn1c(NC(=O)c2ccc(Cl)c(S(=O)(=O)N3CCCC3)c2)nc2ccccc21
- EC50 [9]: 3.14 µM (active)
- EC50 (Streptokinase A): > 150 µM (not active)
- EC50 [10]: 2.63 µM (active)
- EC50 [11]: 6.63 µM (active)
- EC50 (Streptococcus): 11.6 µM (active)
- EC50 [2]: 1.06 µM (active)
- AC50 [12]: 8.39 µM (active)
- AC50 [13]: 38.8 µM (active)
- AC50 [14]: 10.9 µM (active)

SMILES: COc1cc(NC(=O)c2cc(-c3cccnc3)nc3ccc(Br)cc23)cc(OC)c1
- CC50 [7]: > 40 µM (active)

SMILES: Cc1cc(CN2CCCC(C(=O)Nc3ccc(-c4nc5ccccc5[nH]4)cc3)C2)n[nH]1 (configuration not stated)
- EC50 [2]: 0.0003 µM (active)

SMILES: CN(C)C(CNC(=O)CCc1nc2ccccc2s1)c1ccccc1 (configuration not stated)
- EC50 [2]: 0.0187 µM (active)

SMILES: CCN(CC)CCN(C(=O)c1ccccc1OC)c1nc2ccc(F)cc2s1
- EC50 [2]: 2.11 µM (active)

SMILES: CSc1ccc(-c2nnn(CC(=O)NCc3ccccc3)n2)cc1
- CC50 [7]: > 40 µM (active)

SMILES: CC(C)N(Cc1nc(-c2ccccc2)no1)C(=O)COc1ccccc1
- IC50 [3]: > 64 µM (inactive)

SMILES: COc1ccc(CN2CCCCC2C)cc1C (configuration not stated)
- IC50 [4]: < 0.368 µM (active)
- EC50 [5]: 2.45 µM (active)
- IC50 [6]: 20 µM (active)

SMILES: OC(COC(c1ccccc1)c1ccccc1)CN1CCN(c2cccc(Cl)c2)CC1 (configuration not stated)
- CC50 [7]: > 40 µM (active)

SMILES: CC(C)=CCC/C(C)=C/C=N/NC(=O)c1ccc([N+](=O)[O-])cc1
- CC50 [7]: > 40 µM (active)

SMILES: Cc1ccc(OCC(COCc2ccccc2)NC(C)C)cc1 (configuration not stated)
- EC50 [2]: 3.76 µM (active)

SMILES: Cc1cc([N+](=O)[O-])ccc1NCc1ccccc1
- EC50 [2]: 0.841 µM (active)
- IC50 [4]: 4.41 µM (active)
- EC50 [5]: > 53 µM (inactive)
- IC50 (Protein skinhead-1): 66.9 µM (inactive)
- IC50 [6]: 8.31 µM (active)
- AC50 (Cytochrome P450 3A4): 14.1 µM (inconclusive)

SMILES: COc1ccccc1NC(=S)NCCSc1ccc(Cl)cc1
- IC50 [3]: > 64 µM (inactive)
